The text below walks through data of article PMC7998250, “Temperate Zone Plant Natural Products—A Novel Resource for Activity against Tropical Parasitic Diseases” (Pharmaceuticals, 2021).

Where two headings read alike, the source gives them in different places.

Data set [1] concerns P. falciparum Dd2Luc intraerythrocytic trophozoites. Kind of data set: Initial screen, intraerythrocytic P. falciparum, Malaria SYBR-Green I fluorescence assay. Type of data set: cell-based, Plasmodium falciparum. How it is done: (§1) 634 compounds from the PhytoQuest Phytopure temperate plant natural product library were screened for growth inhibitory activity against L. mexicana axenic amastigotes, T. brucei bloodstream form, intraerythrocytic asexual P. falciparum (at 2 μM) and T. evansi bloodstream form parasites (at 1 μM). […] Our initial hits were defined as reducing growth of the parasite by ≥50%. […]
(§2) The PhytoQuest Phytopure library is a commercially available collection of purified compounds isolated predominantly from temperate zone plants, with structures confirmed by NMR and mass spectrometry. The library was provided as 634 non-polar compounds (1 mg/mL in DMSO). Initial screening was performed in a 96-well plate with 200 μL of parasite culture. The initial screen used each compound at a final concentration of 2 μM for L. mexicana axenic amastigotes, T. brucei and P. falciparum, and at 1 μM for T. evansi. L. mexicana axenic amastigotes were plated at 1 × 10^6 cells/mL, incubated for 72 h, and the Alamar Blue assay was used to assess parasite growth. Each compound was tested in triplicate, with two biological replicates (n = 6). T. brucei and T. evansi were plated at 1×10^5 cells/mL for 48 h, and the Alamar Blue assay was used to assess parasite growth. Each compound was tested in triplicate with two biological replicates (n = 6). Intraerythrocytic P. falciparum in the trophozoite stage were seeded at 0.5% parasitaemia and 2% haematocrit for 48 h, and the Malaria SYBR-Green I fluorescence assay was used to assess parasite growth. Each compound was tested in duplicate with two biological replicates (n = 4). Negative controls comprised an equivalent volume of DMSO (equivalent of 1% v/v) to normalise the growth data. Data points >100% growth and <0% growth were tabulated as 100% and 0%, respectively. Some compounds were not tested in all parasite lines as there was insufficient material remaining.

In data set [2] the test system is T. evansi bloodstream form. Kind of data set: Initial screen, T. evansi bloodstream form, Alamar Blue. The settings on record: Trypanosoma evansi; for activity at 1 µM: initial screen; for inhibition of growth at 1 µM: x = initial hit, read-out: initial hit T.e. Type of data set: cell-based, Trypanosoma evansi. How it is done: (§3) 634 compounds from the PhytoQuest Phytopure temperate plant natural product library were screened for growth inhibitory activity against L. mexicana axenic amastigotes, T. brucei bloodstream form, intraerythrocytic asexual P. falciparum (at 2 μM) and T. evansi bloodstream form parasites (at 1 μM). […] Our initial hits were defined as reducing growth of the parasite by ≥50%.
(§4) L. mexicana strain MNYC/BZ/62/M379 and L. donovani strain LdBOB (a clonal line from strain MHOM/SD/62/1S-CL2) were maintained in vitro in the procyclic promastigote stage. Parasites were cultivated at 26 °C in Schneider’s medium (Gibco) pH 7.0 containing 10% FBS, 100 U/mL penicillin (Lonza) and 100 μg/mL streptomycin (Lonza) as previously described. Differentiation into axenic amastigotes was performed as described previously. Briefly, axenic amastigotes were cultivated at 32 °C in Schneider’s medium pH 5.5 containing 10% FBS, 100 U/mL penicillin (Lonza) and 100 μg/mL streptomycin (Lonza). Bloodstream form T. brucei brucei strain Lister 427 and T. evansi strain Antat 3/3 [59] were maintained in vitro at 37 °C with 5% (v/v) CO2 in HMI-11 medium supplemented with 10% FBS, as described elsewhere. Intraerythrocytic cultures of P. falciparum Dd2^Luc strain [62] were maintained at 37 °C in a 1% O2:3% CO2:96% N2 atmosphere in RPMI-1640 containing 37.5 mM HEPES, 5 mM NaOH, 10 mM D-glucose, 2 mM L-glutamine, 100 μM hypoxanthine, […] gentamicin sulfate, 5% human serum and 5% albumax-II and 2% haematocrit erythrocytes. When required, cultures were synchronised to ring stages using the sorbitol lysis method. Preliminary cytotoxicity screening was assessed using HepG2 cells. These cells were maintained in vitro at 37 °C with 5% (v/v) CO2 in DMEM (Sigma) pH 7 supplemented with 10% FBS, 100 U/mL penicillin (Lonza) and 100 μg/mL streptomycin (Lonza), as previously described. The human monocyte cell line THP-1 [68] was maintained in vitro by culturing at 37 °C with 5% (v/v) CO2 in complete RPMI medium (Dutch modified RPMI-1640 (Gibco) containing 10% FBS and 2 mM L-glutamine (Gibco)). Differentiation of THP-1 cells into macrophages was performed by seeding 2.5 × 10^5 cells/mL in complete RPMI media, supplemented with 20 ng/mL phorbol 12-myristate 13-acetate (PMA), followed by incubation at 37 °C with 5% (v/v) CO2 for 24 h.
as §2, with “The” for “The PhytoQuest Phytopure library is a commercially available collection of purified compounds isolated predominantly from temperate zone plants, with structures confirmed by NMR and mass spectrometry. The”
In general terms: Alamar Blue is a resazurin reagent that responds to reducing activity.

The subject of data set [3] is L. mexicana axenic amastigotes. Kind of data set: Initial screen, L. mexicana axenic amastigotes, Alamar Blue. Format: cell-based, Leishmania mexicana. On the procedure: as §1, §2
For data set [4], the system named is T. brucei bloodstream form. Kind of data set: Initial screen, T. brucei bloodstream form, Alamar Blue. Type of data set: cell-based, Trypanosoma brucei brucei. The settings on record: for activity at 2 µM / inhibition of growth at 2 µM: Trypanosoma brucei; for activity at 2 µM: initial screen; for initial hit against T. brucei / inhibition of growth at 2 µM: 2 μM; for initial hit against T. brucei: growth reduced by ≥50%; for inhibition of growth at 2 µM: x = initial hit, read-out: initial hit T.b. How it is done:
as §3, §4
as §2, with “The” for “The PhytoQuest Phytopure library is a commercially available collection of purified compounds isolated predominantly from temperate zone plants, with structures confirmed by NMR and mass spectrometry. The”

A short description of data set [5]: in vitro. The settings on record: human, pH 7, HepG2 CC50.
Text: Initial hits from the parasite panel screen were taken forward in log concentration versus normalised response assays to estimate the half maximal effective concentration (EC50) in hit species as well as the half maximal cytotoxic concentrations (CC50) in the human hepatoma cell line HepG2 as a preliminary test for selectivity. Using CC50/EC50 to define the selectivity index (SI), the selectivity for each compound in a defined species compared to a human cell line was estimated and compared to the EC50 (Figure 3).
as §4
EC50 values were determined by serial two-fold dilution of each compound in 96 well plates. Culture conditions and viability assays were as stated for the initial screen, with some exceptions. L. mexicana and L. donovani axenic amastigotes were seeded at 2 × 10^6 cell/s mL, T. brucei and T. evansi were seeded at 2 × 10^5 cells/mL. For cytotoxicity studies, HepG2 cells were seeded at 1 × 10^5 cells/mL, incubated for 48 h and viability was assessed using the Alamar Blue assay. Differentiated THP-1 cells were seeded at 5 × 10^4 cells/mL, incubated for 48 h, and viability was assessed by the Alamar Blue assay. Normalised growth and viability data (compared to untreated controls) were plotted against Log10 concentration to estimate EC50 in GraphPad (Prism v6). Bioluminescence relative rate of kill assays in asexual intraerythrocytic P. falciparum Dd2^Luc were carried out as described.

The test system of data set [6] is T. brucei. Kind of data set: Concentration-response EC50, T. brucei. Type of data set: cell-based, Trypanosoma brucei brucei. The settings on record: Trypanosoma brucei, 48 h, bloodstream form, 48 h; read-out: T. brucei EC50.
Method: EC50 values were determined by serial two-fold dilution of each compound in 96 well plates. Culture conditions and viability assays were as stated for the initial screen, with some exceptions. L. mexicana and L. donovani axenic amastigotes were seeded at 2 × 10^6 cell/s mL, T. brucei and T. evansi were seeded at 2 × 10^5 cells/mL. For cytotoxicity studies, HepG2 cells were seeded at 1 × 10^5 cells/mL, incubated for 48 h and viability was assessed using the Alamar Blue assay [66, 67]. […] Normalised growth and viability data (compared to untreated controls) were plotted against Log10 concentration to estimate EC50 in GraphPad (Prism v6).
Setting [7] is: Plasmodium falciparum, 48 h, read-out: %growth P. falciparum, mean % growth compared to a normalised control with same concentration of DMSO solvent, initial screen.
Where [8] appears, read: mean % growth compared to a normalised control with same concentration of DMSO solvent, read-out: % growth T. evansi.
[9] abbreviates: Leishmania mexicana, read-out: % growth L. mexicana, mean % growth compared to a normalised control with same concentration of DMSO solvent, initial screen.
Setting [10] is: mean % growth compared to a normalised control with same concentration of DMSO solvent, read-out: % growth T. b. brucei.
Where [11] appears, read: Plasmodium falciparum, 48 h, read-out: mean % growth, P. falciparum, initial screen, compared to a normalised control with same concentration of DMSO solvent.
Where [12] appears, read: Leishmania mexicana, read-out: mean % growth, L. mexicana, initial screen, compared to a normalised control with same concentration of DMSO solvent.
Where [13] appears, read: compared to a normalised control with same concentration of DMSO solvent, read-out: mean % growth, T. b. brucei.
Setting [14] is: compared to a normalised control with same concentration of DMSO solvent, read-out: mean % growth, T. evansi.

As to `CC(=O)OC1C(O)C(C)OC(OC2C(OC(=O)C3C[C@@H]4OC5(CC(OC(=O)/C=C/c6ccccc6)[C@@H](C)CO5)C(O)(CO)[C@@H]4CO3)OC(C)C(O)C2OC(C)=O)C1O` (single isomer, unassigned) [Compound 700047], the figures for the activity at 2 µM in data set [1] (setting [7]), in data set [3] (setting [9]) and in data set [4] (setting [10]) were 41.8%, 60% and 61%, respectively. Further, the inhibition of growth at 2 µM in data set [1] (Plasmodium falciparum, 48 h, read-out: initial hit P.f) is more than 50%. For the same molecule, in data set [2] (setting [8]), the activity at 1 µM was 90.2%.

Broadly, the EC50 is the concentration at which the effect is half-maximal. Consider `O=C1C=CC(O)(c2cc(=O)c3c(O)cc(O)cc3o2)C=C1` [Compound 700586], for which the activity at 2 µM in data set [1] (setting [11]) is 77%; in data set [3] (setting [12]) it was 56.5%; in data set [4] (setting [13]) it was 3.1%. For the same molecule, in data set [5], the CC50 at 48 h is 3.6 µM. Moreover, in data set [4], the “initial hit against T. brucei” value is “initial hits”. Also, the inhibition of growth at 2 µM in data set [4] was more than 50%. For the same molecule, in data set [6], the EC50 amounted to 0.63 µM.

In the case of `CC(C)C(=O)OC1C2C(CC(C)C3C=CC(=O)C31C)OC(=O)C2C` (stereo not shown) [Compound 701156], the activity at 2 µM in data set [1] (setting [11]) came out at 93.7%; in data set [3] (setting [12]), 52.7%; in data set [4] (setting [13]), 24.3%. In addition, in data set [2] (setting [14]), the activity at 1 µM stood at 113%. Moreover, the “initial hit against T. brucei” value in data set [4] is “initial hits”. In data set [4], the inhibition of growth at 2 µM is more than 50%. In addition, the EC50 in data set [6] is 0.99 µM.

Turning to `COc1cc2ccc(=O)oc2c(OC)c1OCC1C(C)=CCC2C(C)(C)C(O)CCC12C` (stereo not shown) [Compound 700867], the activity at 2 µM in data set [1] (setting [11]) stood at 104%; in data set [3] (setting [12]), 60.7%; in data set [4] (setting [13]), 19.3%. Further, in data set [2] (setting [14]), the activity at 1 µM was 126%. In data set [5], the CC50 at 48 h amounted to 27 µM. Besides, in data set [4], the “initial hit against T. brucei” value is “initial hits”. The inhibition of growth at 2 µM in data set [4] was more than 50%. Moreover, in data set [6], the EC50 came out at 2.6 µM.

Take `C/C1=C\C2OC(=O)C(=O)C2CC/C(C(=O)OC2OC(CO)C(O)C(O)C2O)=C\CC1` (stereo not shown) [Compound 700458]: the activity at 2 µM in data set [1] (setting [11]) stood at 119%; in data set [3] (setting [12]), 48.5%; in data set [4] (setting [13]) it was 78.2%. Further, the activity at 1 µM in data set [2] (setting [14]) was 48.2%. Also, the inhibition of growth at 1 µM in data set [2] is more than 50%.

In the case of `CC(C)c1ccc2c(c1)CCC1C(CCCC1C(=O)O)O2` (stereo not shown) [Compound 700110], the activity at 2 µM in data set [1] (setting [7]) was determined as 105%; in data set [3] (setting [9]), 52.4%; in data set [4] (setting [10]), 87.2%. The activity at 1 µM in data set [2] (setting [8]) was 47.9%. In addition, the inhibition of growth at 1 µM in data set [2] was more than 50%.

Turning to `CC(C)c1ccc2c(c1)CCC1C(C)(C=O)CCCC21C` (stereo not shown) [Compound 700014], the “activity against P. falciparum in screen” value in data set [1] (2 μM) is “neither 700014 or 700063 showed activity against P. falciparum”. Besides, the activity at 2 µM was 107% in data set [1] (setting [7]), 56.9% in data set [3] (setting [9]) and 25.2% in data set [4] (setting [10]). The activity at 1 µM in data set [2] (setting [8]) came out at 93%. In data set [3] (2 μM, 72 h), the “decrease of L. mexicana survival” value is on record as approximately 70%. Moreover, the CC50 at 48 h in data set [5] stood at 40 µM. In addition, the “initial hit against T. brucei” value in data set [4] is reported as “initial hits”. Moreover, the inhibition of growth at 2 µM in data set [4] was more than 50%. Further, the EC50 in data set [6] was 1.1 µM.

On to `C#CC#CCc1ccccc1C(=O)OC` [Compound 701248], for which the activity at 2 µM in data set [1] (setting [11]) was 100%; in data set [3] (setting [12]), 19.2%; in data set [4] (setting [13]), 60.9%. The “initial hit against L. mexicana” value in data set [3] (2 μM, growth inhibited by ≥80%) is on record as “initial hits”. Moreover, the inhibition of growth at 2 µM in data set [3] (Leishmania mexicana, 2 μM, x = initial hit, read-out: initial hit L.m) was more than 80%.
